Data on 7 molecules can be found in patent US11344630B2, “Methods and compositions for red-shifted chromophore substitution for optogenetic applications” (Washington University, priority 2014, dated 2022).

Entries after “also recorded” stand apart in the source; their conditions may differ.

Data set [1] relates to optogenetic actuators. Conditions: replacing retinal with 3,4-didehydroretinal, in vitro; cited from earlier work.
Data set [2] addresses T1, archaerhodopsin proton pump, AR-3 (Halorubrum sodomense, UniProt P96787).
T1 construct: host or cells: E. coli
T1 sequence (P96787 7-258): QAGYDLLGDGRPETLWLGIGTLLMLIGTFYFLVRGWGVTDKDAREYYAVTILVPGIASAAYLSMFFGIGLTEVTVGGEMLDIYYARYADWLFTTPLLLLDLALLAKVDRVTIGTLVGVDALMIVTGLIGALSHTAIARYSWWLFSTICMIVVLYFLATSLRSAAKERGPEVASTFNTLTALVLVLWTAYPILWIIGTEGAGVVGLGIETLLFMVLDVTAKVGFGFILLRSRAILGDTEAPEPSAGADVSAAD
Conditions: cited from earlier work; for wavelength of half-maximal absorption on the red slope of the curve: AR-3 expressed in E. coli, chromophore as labelled.

A short description of data set [3]: Absorbance spectra of retinoid HPLC peaks. The data set is classed as physicochemical. Conditions: predominant retinoid species of zebrafish retina extracts, reduced with sodium borohydride. An excerpt:
(§1) FIG. 1A, FIG. 1B, FIG. 1C, FIG. 1D, FIG. 1E, FIG. 1F, FIG. 1G, FIG. 1H, FIG. 1I, FIG. 1J and FIG. 1K depict images and graphs showing that diverse species employ a vitamin A1 to vitamin A2 switch to red-shift the spectral sensitivity of their photoreceptors. (FIG. 1A) Depicts the conversion of all-trans retinol (vitamin A1) into all-trans 3,4-didehydroretinol (vitamin A2). (FIG. 1B, FIG. 1C, FIG. 1D) Depict several species that switch between the use of vitamin A1 and vitamin A2 for vision at different stages of their life cycle. (FIG. 1B) Sea lamprey; (FIG. 1C) Coho salmon; and (FIG. 1D) Northern leopard frog. (FIG. 1E, FIG. 1F, FIG. 1G, FIG. 1H) depict graphs showing that thyroid hormone treatment of adult zebrafish induces quantitative conversion of retinol into 3,4-didehydroretinol. Adult zebrafish were treated with 300 μg/liter thyroid hormone (L-thyroxine) in their water for three weeks. The retinas were then harvested, and retinoid extracts were reduced with sodium borohydride and analyzed by HPLC. (FIG. 1E) Depicts the position of peak #1 in control zebrafish. (FIG. 1F) Depicts the position of peak #2 in TH-treated zebrafish. […] Note that only vitamin A1 and its derivatives (the retinal form has been reduced to the alcohol form) are detected in the ventral RPE whereas both vitamin A1 and vitamin A2 are present in nearly equal proportions in the dorsal RPE. […]

Data set [4] concerns Cyp27c1 transcript. Kind of data set: RNA-seq expression profiling of RPE from thyroid hormone-treated zebrafish vs vehicle-treated controls. The format is in vivo. Conditions: zebrafish treated 3 weeks with thyroid hormone vs vehicle-treated controls. An excerpt:
FIG. 2A and FIG. 2B depict the results of RNA-seq-based expression profiling of zebrafish and bullfrog retinal pigment epithelium (RPE). (FIG. 2A) RNA-seq results comparing the expression levels of individual transcripts (shown as black circles) from RPE derived from zebrafish treated for 3 weeks with thyroid hormone and vehicle-treated controls. The location of the Cyp27c1 transcript is circled in red. (FIG. 2B) RNA-seq results comparing the expression levels of individual transcripts (shown as black circles) from dorsal and ventral bullfrog RPE. The location of the Cyp27c1 transcript is circled in red.
It has long been postulated that the conversion of retinal into 3,4-dehydroretinal in migratory fish is mediated by a ‘terminal ring dehydrogenase’^8. […] To identify the transcript encoding this enzyme, we carried out transcriptome profiling of thyroid hormone-treated fish and compared them to vehicle-treated controls. We hypothesized that the enzyme was likely to be expressed in one of three tissues: retinal pigment epithelium (which lies immediately adjacent to photoreceptors and is a known source of retinoids), retina or liver. We obtained RNA-seq data for RPE and identified an excellent candidate transcript, flj13639. This transcript encodes an ‘orphan’ member of the cytochrome P450 family of monooxygenases, Cyp27c1 (FIG. 2A). […]

Data set [5] has as its system Opn1mw4. The data set can be described thus: RNA-seq expression profiling of RPE samples from thyroid hormone-treated zebrafish (photoreceptor transcripts). The data set is classed as in vivo. Conditions: thyroid hormone-treated 'RPE' samples vs controls. An excerpt: We therefore analyzed a range of photoreceptor gene transcripts in our thyroid hormone-treated ‘RPE’ and controls, and found similar levels of photoreceptor contamination between the two samples.

The subject of data set [6] is adult zebrafish. The data set can be described thus: Thyroid hormone treatment of zebrafish, retinoid content of retinas by HPLC. The format is in vivo.
Excerpt: as §1

Data set [7] deals with red single cones. The data set can be described thus: Suction electrode recordings of red single cones from wild-type and cyp27c1 mutant fish. The format is in vivo. The settings on record: cyp27c1 mutant zebrafish after thyroid hormone treatment. An excerpt: FIG. 11A and FIG. 11B depict graphs presenting suction electrode recordings of red single cones from wild-type and Cyp27c1 mutant fish. […] (FIG. 11A) Untreated wild-type and mutant zebrafish have similar sensitivity.
To continue to probe the effects of Cyp27c1, we generated cyp27c1 null mutant zebrafish. […] We then utilized the mutant zebrafish to identify their ability to covert retinol (A1) to 3,4-didehydroretinol (A2). […] Suction electrode recordings of red single cones from wild-type and cyp27c1 mutant fish were performed.

Data set [8] has as its system HEK293 cells. Kind of data set: Cyp27c1 expression in HEK293 cells incubated with retinol, retinoids by HPLC. Conditions: transfected HEK293 cells incubated with retinol 24 hours, vs empty vector. The data set is classed as cell-based, human. The protocol:
FIG. 5A, FIG. 5B, FIG. 5C, FIG. 5D and FIG. 5E depict the results of introducing an expression construct containing the zebrafish ortholog of Cyp27c1 into HEK293 cells and incubating with retinol for 24 hours (vitamin A1). […] (FIG. 5D, FIG. 5E) depicts the HPLC profile of commercially obtained chemical standards A1 (FIG. 5D) and A2 (FIG. 5E).
Next, we determined if Cyp27c1 is sufficient to convert retinal to 3,4-didehydroretinal. We cloned a full-length zebrafish Cyp27c1 cDNA and a full-length human Cyp27c1 cDNA into a mammalian expression vector and expressed it in HEK293 cells. FIG. 3 confirms that the recombinant zebrafish and human Cyp27c1 are expressed in the HEK293 cells.

Turning to `CC1=C(/C=C/C(C)=C/C=C/C(C)=C/C=O)C(C)(C)CC=C1` [3,4-didehydroretinal], the “red-shift of action spectra” value in data set [1] is “greater than 30 nm”. The “red-shift of wavelength of half-maximal absorption” value in data set [2] (3,4-didehydroretinal in place of retinal in AR-3) is reported as 40 nm. For the same molecule, in data set [2], the “wavelength of half-maximal absorption on the red slope of the curve” value is listed as 639 nm.

As for `CC1=C(/C=C/C(C)=C/C=C/C(C)=C/CO)C(C)(C)CC=C1` [3,4-didehydroretinol, all-trans 3,4-didehydroretinol], the “absorbance maximum (peak)” value in data set [3] was 355 nm.

Turning to `CC1=C(/C=C/C(C)=C/C=C/C(C)=C/C=O)C(C)(C)CCC1` [retinal, all-trans retinal], the “wavelength of half-maximal absorption on the red slope of the curve” value in data set [2] is reported as 599 nm. On to `CC1=C(/C=C/C(C)=C/C=C/C(C)=C/CO)C(C)(C)CCC1` [retinol, all-trans retinol], for which the “absorbance maximum (peak)” value in data set [3] is recorded as 326 nm. With `N[C@@H](Cc1cc(I)c(Oc2cc(I)c(O)c(I)c2)c(I)c1)C(=O)O` [thyroid hormone, L-thyroxine], in data set [4], the “Cyp27c1 transcript expression level in RPE” value was “markedly upregulated”. For the same molecule, the Opn1mw4 transcript upregulation in data set [5] is listed as 4 fold. Further, in data set [6] (thyroid hormone treated cyp27c1 null mutant zebrafish), the “HPLC profile of retinoids” value was “only the presence of A1”. Further, the “conversion of retinal into 3,4-dehydroretinal (A1 to A2) in retinas” value in data set [6] (wild-type adult zebrafish, 300 μg/liter L-thyroxine in water, three weeks, HPLC) is given as “quantitative conversion of retinal into 3,4-dehydroretinal; also recorded: conversion of A1 to A2”. Besides, the “red-shift of red cone sensitivity” value in data set [7] is reported as “fail to red-shift”.

B1: human Cyp27c1: cytochrome P450, family 27, subfamily C, polypeptide 1 encoded by the cyp27c1 gene from Homo sapiens (protein, UniProt Q4G0S4 81-542, looked up)
Cytochrome P450 27C1: ANLAEFFCRDGFSRIHEIQQKHTREYGKIFKSHFGPQFVVSIADRDMVAQVLRAEGAAPQRANMESWREYRDLRGRATGLISAEGEQWLKMRSVLRQRILKPKDVAIYSGEVNQVIADLIKRIYLLRSQAEDGETVTNVNDLFFKYSMEGVATILYESRLGCLENSIPQLTVEYIEALELMFSMFKTSMYAGAIPRWLRPFIPKPWREFCRSWDGLFKFSQIHVDNKLRDIQYQMDRGRRVSGGLLTYLFLSQALTLQEIYANVTEMLLAGVDTTSFTLSWTVYLLARHPEVQQTVYREIVKNLGERHVPTAADVPKVPLVRALLKETLRLFPVLPGNGRVTQEDLVIGGYLIPKGTQLALCHYATSYQDENFPRAKEFRPERWLRKGDLDRVDNFGSIPFGHGVRSCIGRRIAELEIHLVVIQLLQHFEIKTSSQTNAVHAKTHGLLTPGGPIHVRFVNRK
As to B1, in data set [8], the “formation of 3,4-didehydroretinol (A2) from retinol” value is given as “significant quantities of 3,4-didehydroretinol”.

B2: zebrafish Cyp27c1: cytochrome P450, family 27, subfamily C, polypeptide 1 encoded by the cyp27c1 gene from Danio rerio (protein, UniProt A8WGA0 1-540, looked up)
Cytochrome P450 27C1: MALQSTILHMARKNLLQESCRQLLIQTHGLHKSVASGSLEIAAHSQADLKEESAVSPAEEVQKAARVKSLKEMPGPSTVANLLEFFYRDGFSRIHEIQMEHAKKYGKIFKSRFGPQFVVSIADRDMVAQVLRSESATPQRGNMESWKEYRDLRGRSTGLISAEGDEWLKMRSVLRQLIMRPRDVAVFSSDVNDVVADLVKRVKTLRSQQDDSQTVLNINDLFFKYAMEGVATILYETRLGCLENEIPKMSQEYITALHLMFSSFKTTMYAGAIPKWLRPIIPKPWEEFCSSWDGLFKFSQIHVDKRLSEIKKQMEKSEEIKGGLLTHMLVTREMNLEEIYANMTEMLLAGVDTTSFTLSWSTYLLARHPTIQQQIFEEVDRVLGGRVPTGEDVPYLPLIRGLVKETLRLFPVLPGNGRVTHDDLIVGGYLIPKGTQLALCHYSTSMDEENFPRPEEFRPDRWIRKDASDRVDNFGSIPFGYGIRSCIGRRIAELEMHLALTQLLQNFHIEVSPQTTEVHAKTHGLLCPGASINLRFTDRK
Take B2: the “formation of 3,4-didehydroretinol (A2) from retinol” value in data set [8] is given as “significant quantities of 3,4-didehydroretinol”.
